Biological target: human activated kallikrein enzyme (plasma kallikrein) (Homo sapiens (Human), UniProt P03952)
Test: Inhibition of human activated plasma kallikrein, fluorogenic peptide substrate assay, 500 pM enzyme format
Assay type: biochemical
Details: 500 pM activated kallikrein enzyme, 300 uM Pro-Phe-Arg-7-amido-4-methylcoumarin substrate, 30 min preincubation, 10 min at RT; read-out: Primary Dose Response Assay: Average EC50
In short: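 Buffer 20 mM Tris pH 7.5, EDTA, NaCl, PEG-400, Triton X-100; 300 uM Pro-Phe-Arg-AMC; enzyme–inhibitor preincubation 30 min RT. Format one: 500 pM kallikrein, 10 min RT reaction; format two: 5 pM kallikrein, 18 h RT reaction. Fluorescence read at 460 nm (380 nm excitation).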

Sequence of human activated kallikrein enzyme (plasma kallikrein) (P03952 391-638): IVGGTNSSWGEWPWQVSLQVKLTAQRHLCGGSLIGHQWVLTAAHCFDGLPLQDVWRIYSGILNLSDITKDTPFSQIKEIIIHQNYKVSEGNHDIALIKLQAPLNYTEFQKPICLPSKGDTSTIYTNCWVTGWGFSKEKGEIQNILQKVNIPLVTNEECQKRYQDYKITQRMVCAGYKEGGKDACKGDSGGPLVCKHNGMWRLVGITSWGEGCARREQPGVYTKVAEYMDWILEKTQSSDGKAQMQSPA
Sequence of human activated kallikrein enzyme (plasma kallikrein) (P03952 20-390 partner): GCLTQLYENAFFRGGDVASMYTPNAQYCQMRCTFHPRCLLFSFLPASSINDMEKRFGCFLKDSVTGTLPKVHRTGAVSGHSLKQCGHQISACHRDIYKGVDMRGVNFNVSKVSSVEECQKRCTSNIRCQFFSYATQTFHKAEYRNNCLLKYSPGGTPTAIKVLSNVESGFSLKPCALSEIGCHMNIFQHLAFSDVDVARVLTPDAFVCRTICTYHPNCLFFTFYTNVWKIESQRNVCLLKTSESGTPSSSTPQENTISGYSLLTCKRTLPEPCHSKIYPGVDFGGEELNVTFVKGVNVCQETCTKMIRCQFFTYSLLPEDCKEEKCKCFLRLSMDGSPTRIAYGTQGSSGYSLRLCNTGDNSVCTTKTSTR

Row | SMILES | EC50
1 | O=C(NCc1ncn2ccc(Br)cc12)c1cn(Cc2cn3cc(C4CC4)ccc3n2)nc1C1CC1 [Example I-85, N-((7-bromoimidazo[1,5-a]pyridin-1-yl)methyl)-3-cyclopropyl-1-((6-cyclopropylimidazo[1,2-a]pyridin-2-yl)methyl)-1H-pyrazole-4-carboxamide] | < 1 nM
2 | O=C(NCc1ncn2ccc(Cl)c(F)c12)c1cn(Cc2cn3cc(C4CC4)cc(N4CCOC4=O)c3n2)nn1 [Example I-216, N-((7-chloro-8-fluoroimidazo[1,5-a]pyridin-1-yl)methyl)-1-((6-cyclopropyl-8-(2-oxooxazolidin-3-yl)imidazo[1,2-a]pyridin-2-yl)methyl)-1H-1,2,3-triazole-4-carboxamide] | < 1 nM
3 | O=C(NCc1ncn2ccc(Cl)cc12)c1cnn(Cc2cn3cc(C4CC4)cc(CN4CCOCC4)c3n2)c1 [Example I-101, N-((7-chloroimidazo[1,5-a]pyridin-1-yl)methyl)-1-((6-cyclopropyl-8-(morpholinomethyl)imidazo[1,2-a]pyridin-2-yl)methyl)-1H-pyrazole-4-carboxamide] | < 1 nM
4 | Cn1nc(C(=O)NCc2ncn3ccc(Cl)cc23)nc1Cc1cn2cc(C3CC3)ccc2n1 [Example I-160, N-((7-chloroimidazo[1,5-a]pyridin-1-yl)methyl)-5-((6-cyclopropylimidazo[1,2-a]pyridin-2-yl)methyl)-1-methyl-1H-1,2,4-triazole-3-carboxamide] | 1 to 10 nM
5 | O=C(NCc1ncn2ccc(Cl)c(F)c12)c1cnn(Cc2cn3ncccc3n2)c1 [Example I-285, N-((7-chloro-8-fluoroimidazo[1,5-a]pyridin-1-yl)methyl)-1-(imidazo[1,2-b]pyridazin-2-ylmethyl)-1H-pyrazole-4-carboxamide] | 10 to 100 nM
6 | NCCOCc1cc(C2CC2)cn2cc(Cn3cc(C(=O)NCc4ncn5ccc(Cl)c(F)c45)nn3)nc12 [Example I-302, 1-((8-((2-aminoethoxy)methyl)-6-cyclopropylimidazo[1,2-a]pyridin-2-yl)methyl)-N-((7-chloro-8-fluoroimidazo[1,5-a]pyridin-1-yl)methyl)-1H-1,2,3-triazole-4-carboxamide] | < 1 nM
7 | O=C(NCc1ncn2ccc(Cl)c(F)c12)c1cnn(Cc2nc3ccccn3n2)c1 [Example I-282, 1-([1,2,4]triazolo[1,5-a]pyridin-2-ylmethyl)-N-((7-chloro-8-fluoroimidazo[1,5-a]pyridin-1-yl)methyl)-1H-pyrazole-4-carboxamide] | 100 to 2000 nM
8 | CC1(c2ccc3nc(Cn4cc(C(=O)NCc5ncn6ccc(Cl)cc56)cn4)cn3c2)CC1 [Example I-10, N-((7-chloroimidazo[1,5-a]pyridin-1-yl)methyl)-1-((6-(1-methylcyclopropyl)imidazo[1,2-a]pyridin-2-yl)methyl)-1H-pyrazole-4-carboxamide] | < 1 nM
9 | O=C(NCc1ncn2ccc(Cl)c(F)c12)c1coc(Cc2cn3cc(C4CC4)ccc3n2)n1 [Example I-196, N-((7-chloro-8-fluoroimidazo[1,5-a]pyridin-1-yl)methyl)-2-((6-cyclopropylimidazo[1,2-a]pyridin-2-yl)methyl)oxazole-4-carboxamide] | 1 to 10 nM
10 | CC(F)c1cc(C2CC2)cn2cc(Cn3cc(C(=O)NCc4ncn5ccc(Cl)c(F)c45)nn3)nc12 (stereo not drawn) [Example I-213, N-((7-chloro-8-fluoroimidazo[1,5-a]pyridin-1-yl)methyl)-1-((6-cyclopropyl-8-(1-fluoroethyl)imidazo[1,2-a]pyridin-2-yl)methyl)-1H-1,2,3-triazole-4-carboxamide] | < 1 nM
11 | O=C(NCc1ncn2ccc(Cl)c(F)c12)c1cn(Cc2cn3cc(C4CC4)ccc3n2)c(C(=O)O)n1 [Example I-261, 4-(((7-chloro-8-fluoroimidazo[1,5-a]pyridin-1-yl)methyl)carbamoyl)-1-((6-cyclopropylimidazo[1,2-a]pyridin-2-yl)methyl)-1H-imidazole-2-carboxylic acid] | < 1 nM
12 | CS(=O)(=O)c1cc(C2CC2)cn2cc(Cn3cc(C(=O)NCc4ncn5ccc(Cl)cc45)cn3)nc12 [Example I-159, N-((7-chloroimidazo[1,5-a]pyridin-1-yl)methyl)-1-((6-cyclopropyl-8-(methylsulfonyl)imidazo[1,2-a]pyridin-2-yl)methyl)-1H-pyrazole-4-carboxamide] | < 1 nM
13 | COC(=O)c1ccc2nc(Cn3cc(C(=O)NCc4ncn5ccc(Cl)cc45)cn3)cn2c1 [Example I-91, methyl 2-((4-(((7-chloroimidazo[1,5-a]pyridin-1-yl)methyl)carbamoyl)-1H-pyrazol-1-yl)methyl)imidazo[1,2-a]pyridine-6-carboxylate] | 10 to 100 nM
14 | COCCOc1cc(C2CC2)cn2cc(Cn3cc(C(=O)NCc4ncn5ccc(Cl)cc45)cn3)nc12 [Example I-103, N-((7-chloroimidazo[1,5-a]pyridin-1-yl)methyl)-1-((6-cyclopropyl-8-(2-methoxyethoxy)imidazo[1,2-a]pyridin-2-yl)methyl)-1H-pyrazole-4-carboxamide] | < 1 nM
15 | COc1cccc2nc(Cn3cc(C(=O)NCc4ncn5ccc(Cl)cc45)cn3)cn12 [Example I-63, N-((7-chloroimidazo[1,5-a]pyridin-1-yl)methyl)-1-((5-methoxyimidazo[1,2-a]pyridin-2-yl)methyl)-1H-pyrazole-4-carboxamide] | 10 to 100 nM
16 | Cc1nnc(C)n1-c1cc(C2CC2)cn2cc(Cn3cc(C(=O)NCc4ncn5ccc(Cl)c(F)c45)nn3)nc12 [Example I-253, N-((7-chloro-8-fluoroimidazo[1,5-a]pyridin-1-yl)methyl)-1-((6-cyclopropyl-8-(3,5-dimethyl-4H-1,2,4-triazol-4-yl)imidazo[1,2-a]pyridin-2-yl)methyl)-1H-1,2,3-triazole-4-carboxamide] | < 1 nM
17 | O=C(NCc1ncn2ccc(Cl)c(F)c12)c1cn(Cc2cn3nc(C4CC4)ccc3n2)cn1 [Example I-288, N-((7-chloro-8-fluoroimidazo[1,5-a]pyridin-1-yl)methyl)-1-((6-cyclopropylimidazo[1,2-b]pyridazin-2-yl)methyl)-1H-imidazole-4-carboxamide] | < 1 nM
18 | O=C(O)Cn1c(Cn2cc(C(=O)NCc3ncn4ccc(Cl)c(F)c34)nn2)cc2cc(C3CC3)ccc21 [Example I-244, 2-(2-((4-(((7-chloro-8-fluoroimidazo[1,5-a]pyridin-1-yl)methyl)carbamoyl)-1H-1,2,3-triazol-1-yl)methyl)-5-cyclopropyl-1H-indol-1-yl)acetic acid] | 10 to 100 nM
19 | O=C(NCc1ncn2ccc(Cl)cc12)c1cnn(Cc2cn3cc(C4CC4)cc(CO)c3n2)c1 [Example I-75, N-((7-chloroimidazo[1,5-a]pyridin-1-yl)methyl)-1-((6-cyclopropyl-8-(hydroxymethyl)imidazo[1,2-a]pyridin-2-yl)methyl)-1H-pyrazole-4-carboxamide] | < 1 nM
20 | COC(=O)Cc1cc(C2CC2)cn2cc(Cn3cc(C(=O)NCc4ncn5ccc(Cl)cc45)cn3)nc12 [Example I-81, methyl 2-(2-((4-(((7-chloroimidazo[1,5-a]pyridin-1-yl)methyl)carbamoyl)-1H-pyrazol-1-yl)methyl)-6-cyclopropylimidazo[1,2-a]pyridin-8-yl)acetate] | < 1 nM
21 | O=C(NCc1ncn2ccc(Br)cc12)c1cnn(Cc2cn3cc(C4CC4)ccc3n2)c1 [Example I-5, N-((7-bromoimidazo[1,5-a]pyridin-1-yl)methyl)-1-((6-cyclopropylimidazo[1,2-a]pyridin-2-yl)methyl)-1H-pyrazole-4-carboxamide] | < 1 nM

Source: US10730874B2 (Shire Human Genetic Therapies, Inc., priority 2018, dated 2020)
